Key:
CDK2/cyclin A2 = target: T1, CDK2/cyclin A2 (Homo sapiens, UniProt P24941); test: Human CDK2/cyclin A2 inhibitory activity (QS S Assist CDK2/Cyclin A2_FP Kit, IMAP fluorescent polarization); assay type: biochemical; conditions: read-out: CDK2 Activity symbol
T1 construct: purchased Carna Biosciences, Inc. QS S Assist CDK2/Cyclin A2_FP Kit
Summary of the method: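 Kit CDK2/cyclin A2 (2.5 ng/well) was reacted with kit ATP/substrate/metal in 20 mM HEPES pH 7.4, 0.01% Tween 20 and 2 mM DTT for 60 min at room temperature. IMAP binding reagent was added for 30 min, then fluorescence polarization was read at 485/535 nm. IC50 came from dose-response fitting of percent inhibition.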

CDK4/cyclin D3 = target: T2, CDK4/cyclin D3 (Homo sapiens, UniProt P11802); test: Human CDK4/cyclin D3 inhibitory activity (QS S Assist CDK4/Cyclin D3_FP Kit, IMAP fluorescent polarization); assay type: biochemical; conditions: read-out: CDK4 Activity symbol
T2 construct: purchased Carna Biosciences, Inc. QS S Assist CDK4/Cyclin D3_FP Kit
T2 sequence (P11802 whole entry): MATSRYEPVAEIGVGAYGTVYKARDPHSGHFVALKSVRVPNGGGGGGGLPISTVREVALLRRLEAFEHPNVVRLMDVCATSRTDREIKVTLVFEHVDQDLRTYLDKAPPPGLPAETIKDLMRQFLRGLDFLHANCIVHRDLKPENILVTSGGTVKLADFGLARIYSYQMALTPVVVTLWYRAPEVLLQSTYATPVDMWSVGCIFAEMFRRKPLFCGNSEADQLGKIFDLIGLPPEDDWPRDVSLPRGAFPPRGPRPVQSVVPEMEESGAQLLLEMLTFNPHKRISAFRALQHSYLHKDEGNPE
T2 sequence (P30281 whole entry partner): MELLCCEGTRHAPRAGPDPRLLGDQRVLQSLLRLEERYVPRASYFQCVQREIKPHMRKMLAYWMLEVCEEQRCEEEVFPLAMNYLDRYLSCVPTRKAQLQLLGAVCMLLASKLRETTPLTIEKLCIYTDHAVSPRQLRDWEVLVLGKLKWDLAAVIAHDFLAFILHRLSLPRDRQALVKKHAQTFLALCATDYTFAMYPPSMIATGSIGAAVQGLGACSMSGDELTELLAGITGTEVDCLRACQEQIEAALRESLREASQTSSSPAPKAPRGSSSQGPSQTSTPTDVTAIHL
Summary of the method: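 Kinase reactions used kit CDK4/cyclin D3 at 12.5–25 ng/well with the kit ATP/substrate/metal mix in 20 mM HEPES (pH 7.4), 0.01% Tween20 and 2 mM DTT, run 45 min at room temperature. Phosphorylation was detected by IMAP fluorescence polarization (ex 485/em 535 nm) after 30 min binding in the dark. IC50 was fitted from percent inhibition against DMSO controls with and without enzyme.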

Row | Compound | IC50 (CDK2/cyclin A2) [nM] | IC50 (CDK4/cyclin D3) [nM]
1 | C[C@@H](O)c1cc2cnc(Nc3ccc4c(n3)CCN(C(=O)[C@H]3CCN(C)C3)C4)nc2c(N2C3CCC2CC3)n1 [Compound 225] | ≥ 100 | < 10
2 | C[C@@H](O)c1cc2cnc(Nc3ccc4c(n3)CCN(C(=O)[C@@H]3CCN(C)C3)C4)nc2c(N2C3CCC2CC3)n1 [Compound 226] | ≥ 100 | < 10
3 | C[C@@H](O)c1cc2cnc(Nc3ccc4c(n3)CCN(C(=O)[C@@H]3C[C@@H](O)CN3C)C4)nc2c(N2C3CCC2CC3)n1 [Compound 227] | ≥ 100 | < 10
4 | C[C@@H](O)c1cc2cnc(Nc3ccc4c(n3)CCN(C(=O)CN3CCCC3)C4)nc2c(N2C3CCC2CC3)n1 [Compound 228] | ≥ 100 | < 10
5 | C[C@@H](O)c1cc2cnc(Nc3ccc4c(n3)CCN(C(=O)CN3CC(O)C3)C4)nc2c(N2C3CCC2CC3)n1 [Compound 229] | ≥ 100 | < 10
6 | C[C@@H](O)c1cc2cnc(Nc3ccc4c(n3)CCN(C(=O)CN3CCC3)C4)nc2c(N2C3CCC2CC3)n1 [Compound 230] | ≥ 100 | < 10
7 | C[C@@H](O)c1cc2cnc(Nc3ccc4c(n3)CCN(C(=O)CN3CC[C@@H](F)C3)C4)nc2c(N2C3CCC2CC3)n1 [Compound 231] | ≥ 100 | < 10
8 | C[C@@H](O)c1cc2cnc(Nc3ccc4c(n3)CCN(C(=O)CN3CC[C@@H](O)C3)C4)nc2c(N2C3CCC2CC3)n1 [Compound 232] | ≥ 100 | < 10
9 | C[C@@H](O)c1cc2cnc(Nc3ccc4c(n3)CCN(C(=O)CN3CC[C@H](O)C3)C4)nc2c(N2C3CCC2CC3)n1 [Compound 233] | ≥ 100 | < 10
10 | C[C@@H](O)c1cc2cnc(Nc3ccc4c(n3)CCN(C(=O)CNC3COC3)C4)nc2c(N2C3CCC2CC3)n1 [Compound 234] | ≥ 100 | 10 to 100
11 | C[C@@H](O)c1cc2cnc(Nc3ccc4c(n3)CCN(C(=O)CN3CC(F)C3)C4)nc2c(N2C3CCC2CC3)n1 [Compound 235] | ≥ 100 | < 10
12 | CC(O)c1cc2cnc(Nc3ccc4c(n3)CCN(C(=O)CN3CC5(COC5)C3)C4)nc2c(N2C3CCC2CC3)n1 (stereo not drawn) [Compound 236] | ≥ 100 | < 10
13 | C[C@@H](O)c1cc2cnc(Nc3ccc4c(n3)CCN(C(=O)[C@@H]3CCCCN3C)C4)nc2c(N2C3CCC2CC3)n1 [Compound 237] | ≥ 100 | < 10
14 | CC(O)c1cc2cnc(Nc3ccc4c(n3)CCN(C(=O)C3CCCCN3C)C4)nc2c(N2C3CCC2CC3)n1 (stereo not drawn) [Compound 238] | ≥ 100 | < 10
15 | C[C@@H](O)c1cc2cnc(Nc3ccc4c(n3)CCN(C(=O)C3CN(C)C3)C4)nc2c(N2C3CCC2CC3)n1 [Compound 239] | ≥ 100 | < 10
16 | C[C@@H](O)c1cc2cnc(Nc3ccc4c(n3)CCN(C3CN(C)C3)C4)nc2c(N2C3CCC2CC3)n1 [Compound 240] | ≥ 100 | < 10
17 | C[C@@H](O)c1cc2cnc(Nc3ccc(O[C@H]4CCCNC4)cn3)nc2c(N2CCCCC2)n1 [Compound 241] | ≥ 100 | < 10
18 | CC(O)c1cc2cnc(Nc3ccc(OC4CCCNC4)cn3)nc2c(N2C3CCC2CC3)n1 (stereo not drawn) [Compound 242] | ≥ 100 | < 10
19 | C[C@@H](O)c1cc2cnc(Nc3ccc(OC4CCNCC4)cn3)nc2c(N2CCC[C@H](F)C2)n1 [Compound 243] | ≥ 100 | < 10
20 | O=C1CCNCCN1c1ccc(Nc2ncc3cc(CO)nc(N4CCCCC4)c3n2)nc1 [Compound 244] | ≥ 100 | < 10
21 | CC[C@@H](O)c1cc2cnc(Nc3ccc(N4CCNCC4=O)cn3)nc2c(N2CCC[C@H]2C)n1 [Compound 245] | ≥ 100 | < 10
22 | CC[C@H](O)c1cc2cnc(Nc3ccc(N4CCNCC4=O)cn3)nc2c(N2CCC[C@H]2C)n1 [Compound 246] | ≥ 100 | < 10
23 | CC[C@@H](O)c1cc2cnc(Nc3ccc(CN4CCN(CCO)CC4)cn3)nc2c(N2CCC[C@H]2C)n1 [Compound 247] | ≥ 100 | < 10
24 | CC[C@H](O)c1cc2cnc(Nc3ccc(CN4CCN(CCO)CC4)cn3)nc2c(N2CCC[C@H]2C)n1 [Compound 248] | ≥ 100 | < 10
25 | C[C@@H](O)c1cc2cnc(Nc3ccc(CN4CCN(CCO)C(=O)C4)cn3)nc2c(N2CCCCC2)n1 [Compound 249] | ≥ 100 | 10 to 100
26 | C[C@@H](O)c1cc2cnc(Nc3ccc(O[C@H]4CCCNC4)cn3)nc2c(N2CC[C@@H](F)C2)n1 [Compound 250] | ≥ 100 | < 10
27 | C[C@@H](O)c1cc2cnc(Nc3ccc(O[C@H]4CCCNC4)cn3)nc2c(N2CCC[C@H](F)C2)n1 [Compound 251] | ≥ 100 | < 10

Row | Compound | IC50 (CDK2/cyclin A2) [nM] | IC50 (CDK4/cyclin D3) [nM]
28 | C[C@@H](O)c1cc2cnc(Nc3ccc(O[C@H]4CCCN(CCO)C4)cn3)nc2c(N2CCCCC2)n1 [Compound 252] | ≥ 100 | < 10
29 | C[C@@H](O)c1cc2cnc(Nc3ccc(O[C@H]4CCCN(CCO)C4)cn3)nc2c(N2C3CCC2CC3)n1 [Compound 253] | ≥ 100 | < 10
30 | C[C@@H](O)c1cc2cnc(Nc3ccc(O[C@H]4CCCN(CCO)C4)cn3)nc2c(N2CC[C@@H](F)C2)n1 [Compound 254] | ≥ 100 | < 10
31 | C[C@@H](O)c1cc2cnc(Nc3ccc(O[C@H]4CCCN(CCO)C4)cn3)nc2c(N2CCC[C@H](F)C2)n1 [Compound 255] | ≥ 100 | < 10
32 | C[C@@H](O)c1cc2cnc(Nc3ccc(N4CCNCC4=O)cn3)nc2c(N2C3CCC2CC3)n1 [Compound 256] | ≥ 100 | < 10
33 | C[C@H]1CCN(c2nc([C@@H](C)O)cc3cnc(Nc4ccc(N5CCNCC5=O)cn4)nc23)C1 [Compound 257] | ≥ 100 | < 10
34 | C[C@H]1CCN(c2nc([C@@H](C)O)cc3cnc(Nc4ccc(N5CCCNCC5=O)cn4)nc23)C1 [Compound 258] | ≥ 100 | < 10
35 | C[C@@H](O)c1cc2cnc(Nc3ccc(N4CCN(CCS(C)(=O)=O)CCC4=O)cn3)nc2c(N2CCCCC2)n1 [Compound 259] | ≥ 100 | < 10
36 | Cc1nc(Nc2ncc3cc([C@@H](C)O)nc(N4CCCCC4)c3n2)ccc1N1CCNCC1=O [Compound 260] | ≥ 100 | < 10
37 | Cc1nc(Nc2ncc3cc([C@@H](C)O)nc(N4CC[C@H](C)C4)c3n2)ccc1N1CCNCC1=O [Compound 261] | ≥ 100 | < 10
38 | C[C@@H](O)c1cc2cnc(Nc3ccc4c(n3)CCN(C(=O)CN3CCC(O)CC3)C4)nc2c(N2C3CCC2CC3)n1 [Compound 262] | ≥ 100 | < 10
39 | C[C@@H](O)c1cc2cnc(Nc3ccc4c(n3)CCN(C(=O)CN3CCN(CCO)CC3)C4)nc2c(N2C3CCC2CC3)n1 [Compound 263] | ≥ 100 | < 10
40 | C[C@@H](O)c1cc2cnc(Nc3ccc4c(n3)CCN(C(=O)CN3CCN(C)CC3)C4)nc2c(N2C3CCC2CC3)n1 [Compound 264] | ≥ 100 | < 10
41 | C[C@@H](O)c1cc2cnc(Nc3ccc4c(n3)CCN(C(=O)CN3CC5(CN(C)C5)C3)C4)nc2c(N2C3CCC2CC3)n1 [Compound 265] | ≥ 100 | < 10
42 | C[C@@H](O)c1cc2cnc(Nc3ccc4c(n3)CCN(C(=O)CN3CC5(COC5)C3)C4)nc2c(N2CCCCC2)n1 [Compound 266] | ≥ 100 | < 10
43 | C[C@@H](O)c1cc2cnc(Nc3ccc4c(n3)CCN(C(=O)CN3CC5(CC(O)C5)C3)C4)nc2c(N2C3CCC2CC3)n1 [Compound 267] | ≥ 100 | < 10
44 | C[C@@H](O)c1cc2cnc(Nc3ccc4c(n3)CCN(C(=O)CN3CC5(CC(O)C5)C3)C4)nc2c(N2CCCCC2)n1 [Compound 268] | ≥ 100 | < 10
45 | C[C@@H](O)c1cc2cnc(Nc3ccc4c(n3)CCN(C(=O)CN3CC(F)C3)C4)nc2c(N2CCCCC2)n1 [Compound 269] | ≥ 100 | < 10
46 | C[C@@H](O)c1cc2cnc(Nc3ccc4c(n3)CCN(C(=O)CN3CCC3)C4)nc2c(N2CCCCC2)n1 [Compound 270] | ≥ 100 | < 10
47 | C[C@@H](O)c1cc2cnc(Nc3ccc(CN4CCN(CCO)CC4)cn3)nc2c(N2CCC(C#N)CC2)n1 [Compound 271] | ≥ 100 | < 10
48 | C[C@@H](O)c1cc2cnc(Nc3ccc(N4CCNCC4=O)cn3)nc2c(N2CCC(C#N)CC2)n1 [Compound 272] | ≥ 100 | < 10
49 | C[C@@H](O)c1cc2cnc(Nc3ccc(N4CCNCC4)nn3)nc2c(N2CCC(C#N)CC2)n1 [Compound 273] | ≥ 100 | < 10
50 | C[C@@H](O)c1cc2cnc(Nc3ccc4c(n3)CCNC4)nc2c(N2CCC(C#N)CC2)n1 [Compound 274] | ≥ 100 | < 10
51 | OCCN1CCN(Cc2ccc(Nc3ncc4cc(C5COC5)nc(N5CCCCC5)c4n3)nc2)CC1 [Compound 275] | ≥ 100 | < 10
52 | O=C1CCNCCN1c1ccc(Nc2ncc3cc(C4COC4)nc(N4CCCCC4)c3n2)nc1 [Compound 276] | ≥ 100 | < 10
53 | c1cc(N2CCNCC2)nnc1Nc1ncc2cc(C3COC3)nc(N3CCCCC3)c2n1 [Compound 277] | ≥ 100 | 10 to 100
54 | C[C@@H](O)c1cc2cnc(Nc3ccc4c(n3)CCN(CCO)C4)nc2c(N2CCC(C#N)CC2)n1 [Compound 278] | ≥ 100 | < 10
